Patent US11446309B2, “Combination therapy for cancer using bromodomain and extra-terminal (BET) protein inhibitors” (Dana-Farber Cancer Institute, Inc., priority 2013, dated 2022)

System: H2122 human lung cancer line, m855 mouse GEM line, diffuse large B-cell lymphoma and Burkitt's lymphoma cell lines
Test: Combination with JQ1, cell viability isobolograms (cell line not stated for the result)
Assay type: cell-based
Settings: for Effect on JQ1 activity at doses where the agent alone has no effect: in combination with JQ1, doses where they alone have no effect
Experimental: Compounds were profiled against H2122 human lung cancer line and m855 mouse GEM line containing p53/kRas mutations. Compounds were also profiled against diffuse large B-cell lymphoma cell lines OCI-Ly1, OCI-Ly3, OCI-Ly4, OCI-Ly7, S-DHL4, SU-DHL6, SU-DHL7, HBL1, K422, U2932 and Toledo, and against Burkitt's lymphoma cell lines Raji and Ca46.
Using a Biotek EL406, 50 uL of cell media containing 20-60,000 cells/ml was distributed into white 384-well Nunc plates (Thermo). Suspension cells then received compound immediately while adherent cells lines were given one hour to reattach to the surface of the plate prior to compound addition. The compounds to be tested were dissolved in DMSO and arrayed on 384 well compound storage plates (Greiner). Each compound plate received one compound in 5 point dose response approximately centered on the IC50 of the given compound for a given cell line.
After addition of compound, cell plates were incubated for 72 hr in a […] incubator. Cell viability was evaluated using ATPlite (Perkin Elmer) following manufacturer protocols. Data was analyzed in CalcuSyn utilizing the median effect principle of presented by Chou-Talalay and visualized using GraphPad Prism Software. Key parameters assessed were combination index and dose reduction index.
Points below the 1 to 1 line connecting the X and Y axes are ‘synergistic’, points near the line are ‘additive’, and points above it are antagonistic.

SMILES	Type of response when administered in combination with JQ1 (isobologram)	Effect on JQ1 activity at doses where the agent alone has no effect
CO[C@H]1C[C@@H]2CC[C@@H](C)[C@@](O)(O2)C(=O)C(=O)N2CCCC[C@H]2C(=O)O[C@H]([C@H](C)C[C@@H]2CC[C@@H](OC(=O)C(C)(CO)CO)[C@H](OC)C2)CC(=O)[C@H](C)/C=C(\C)[C@@H](O)[C@@H](OC)C(=O)[C@H](C)C[C@H](C)/C=C/C=C/C=C/1C [temsirolimus]	additive effects	increased the effect of JQ1
NC1(c2ccc(-c3nc4ccn5c(=O)[nH]nc5c4cc3-c3ccccc3)cc2)CCC1 [MK2206]	synergistic response	
C[C@@H](Oc1cc(-c2cnn(C3CCNCC3)c2)cnc1N)c1c(Cl)ccc(F)c1Cl [crizotinib]	synergistic response	
Cn1c(=O)n(-c2ccc(C(C)(C)C#N)cc2)c2c3cc(-c4cnc5ccccc5c4)ccc3ncc21 [BEZ235]	additive effects	increased the effect of JQ1
COc1cc([C@@H]2c3cc4c(cc3[C@@H](O[C@@H]3O[C@@H]5CO[C@@H](C)O[C@H]5[C@H](O)[C@H]3O)[C@H]3COC(=O)[C@H]23)OCO4)cc(OC)c1O [etoposide]	synergistic response	
